Assay results published in ChEMBL document CHEMBL1221314, “Potential anti-inflammatory phenolic glycosides from the medicinal plant Moringa oleifera fruits” (Bioorg Med Chem, 2010).

Experiments:
RAW264.7 [1] = assay: Antiinflammatory activity in mouse RAW264.7 cells assessed as inhibition of LPS-induced iNOS expression incubated 30 mins prior to LPS challenge by Western blotting; type: functional, cell-based
RAW264.7 [2] = assay: Antiinflammatory activity in mouse RAW264.7 cells assessed as inhibition of LPS-induced NO production incubated 30 mins prior to LPS challenge; type: functional, cell-based
RAW264.7 [3] = assay: Cytotoxicity against mouse RAW264.7 cells after 24 hrs by SRB assay; type: cell-based; conditions: raw264.7, 24 h
RAW264.7 [4] = assay: Antiinflammatory activity in mouse RAW264.7 cells assessed as inhibition of LPS-induced NO production at 5 uM incubated 30 mins prior to LPS challenge; type: functional

| Compound | Activity (RAW264.7 [1]) | IC50 (RAW264.7 [2]) [µM] | Activity (RAW264.7 [3]) | inhibition at 5 µM (RAW264.7 [4]) [%] |
| --- | --- | --- | --- | --- |
| CC(=O)O[C@@H]1[C@@H](O)[C@H](C)O[C@@H](Oc2ccc(CN=C=S)cc2)[C@@H]1O | Dose-dependent effect | 2.66 | Non-toxic |  |
| CNC(=N)NCCC[C@H](N)C(=O)O |  | 25.5 |  |  |
| C[C@@H]1O[C@@H](Oc2ccc(CN=C=S)cc2)[C@H](O)[C@H](O)[C@H]1O | Dose-dependent effect | 14.4 |  |  |
| CC(=O)O[C@@H]1[C@@H](O)[C@@H](O)[C@H](Oc2ccc(CN=C=S)cc2)O[C@H]1C | Dose-dependent effect | 2.71 | Non-toxic |  |
| C[C@@H]1O[C@@H](Oc2ccc(CC#N)cc2)[C@H](O)[C@H](O)[C@H]1O [NIAZIRIN] |  | > 45 |  | < 1 |
| CSC(=O)NCc1ccc(O[C@@H]2O[C@@H](C)[C@H](O)[C@@H](O)[C@H]2O)cc1 |  | > 45 |  | 24.3 |
| COC(=S)NCc1ccc(O[C@@H]2O[C@@H](C)[C@H](OC(C)=O)[C@@H](O)[C@H]2O)cc1 [NIAZICIN A] |  | > 45 |  | 17.3 |
| COC(=S)NCc1ccc(O[C@@H]2O[C@@H](C)[C@H](O)[C@@H](O)[C@H]2O)cc1 [NIAZININ A] |  | > 45 |  | < 1 |
| CC(=O)O[C@H]1[C@H](Oc2ccc(CN=C=S)cc2)O[C@@H](C)[C@H](O)[C@H]1O | Dose-dependent effect | 1.67 | Non-toxic |  |
